The source of these data is ChEMBL document CHEMBL3991601, “The target landscape of clinical kinase drugs” (Science, 2017).

Activity calls are given as the source filed them. Cut-off read from the data, not from the text of the source, for most assays here: actives have a measured Kd and inactives only a lower limit.

For orientation: Kd means the free concentration of one partner at which half of the binding sites on the other are occupied at equilibrium, for simple one-to-one binding.

Experiment [1] concerns the target Cyclin-dependent kinase 1 (Homo sapiens, UniProt P06493).
The target of experiment [2] is Cyclin-dependent kinase 3 (Homo sapiens, UniProt Q00526).
Chain of Cyclin-dependent kinase 3 (Q00526 whole entry): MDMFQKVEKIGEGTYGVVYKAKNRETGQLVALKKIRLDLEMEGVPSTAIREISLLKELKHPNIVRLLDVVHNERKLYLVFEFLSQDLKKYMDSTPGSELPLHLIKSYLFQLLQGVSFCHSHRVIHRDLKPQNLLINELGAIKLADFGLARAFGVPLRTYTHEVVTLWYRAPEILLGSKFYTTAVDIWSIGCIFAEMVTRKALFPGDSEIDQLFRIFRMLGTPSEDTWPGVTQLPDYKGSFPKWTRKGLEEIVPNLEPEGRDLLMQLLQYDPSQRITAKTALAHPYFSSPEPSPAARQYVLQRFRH
The target in experiment [3] is Tyrosine-protein kinase JAK1 (Homo sapiens, UniProt P23458).
Chain of Tyrosine-protein kinase JAK1 (P23458 whole entry): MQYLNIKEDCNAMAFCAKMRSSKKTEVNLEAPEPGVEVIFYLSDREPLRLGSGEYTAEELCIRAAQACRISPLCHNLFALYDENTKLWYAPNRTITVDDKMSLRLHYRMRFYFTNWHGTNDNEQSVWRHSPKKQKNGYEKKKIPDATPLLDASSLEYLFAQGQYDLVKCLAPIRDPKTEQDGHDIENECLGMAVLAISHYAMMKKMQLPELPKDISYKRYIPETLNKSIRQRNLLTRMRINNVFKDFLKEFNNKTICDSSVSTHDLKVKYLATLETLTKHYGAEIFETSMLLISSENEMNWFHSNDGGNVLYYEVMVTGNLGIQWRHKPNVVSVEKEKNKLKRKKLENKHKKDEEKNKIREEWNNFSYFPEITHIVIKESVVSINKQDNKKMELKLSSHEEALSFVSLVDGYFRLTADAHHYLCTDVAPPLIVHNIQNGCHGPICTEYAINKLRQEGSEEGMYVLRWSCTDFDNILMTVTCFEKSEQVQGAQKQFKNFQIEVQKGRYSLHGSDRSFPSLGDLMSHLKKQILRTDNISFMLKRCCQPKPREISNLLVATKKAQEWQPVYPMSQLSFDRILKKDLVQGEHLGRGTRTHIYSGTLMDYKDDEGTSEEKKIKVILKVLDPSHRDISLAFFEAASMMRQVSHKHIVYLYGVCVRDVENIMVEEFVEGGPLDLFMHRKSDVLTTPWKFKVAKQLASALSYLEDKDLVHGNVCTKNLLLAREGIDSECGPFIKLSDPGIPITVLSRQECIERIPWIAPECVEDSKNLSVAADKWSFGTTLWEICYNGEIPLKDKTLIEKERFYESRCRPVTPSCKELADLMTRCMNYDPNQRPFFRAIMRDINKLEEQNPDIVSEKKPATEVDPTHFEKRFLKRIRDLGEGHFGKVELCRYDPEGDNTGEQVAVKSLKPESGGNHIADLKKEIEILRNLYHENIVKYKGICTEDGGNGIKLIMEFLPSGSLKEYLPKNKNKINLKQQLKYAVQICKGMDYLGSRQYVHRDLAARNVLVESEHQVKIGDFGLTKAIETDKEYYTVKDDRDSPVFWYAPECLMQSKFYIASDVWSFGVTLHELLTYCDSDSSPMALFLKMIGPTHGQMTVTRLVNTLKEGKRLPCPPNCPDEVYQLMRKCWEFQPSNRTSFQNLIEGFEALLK
In experiment [4] the target is T1, Dual specificity mitogen-activated protein kinase kinase 5 (Homo sapiens, UniProt Q13163).
T1 sequence (Q13163 whole entry): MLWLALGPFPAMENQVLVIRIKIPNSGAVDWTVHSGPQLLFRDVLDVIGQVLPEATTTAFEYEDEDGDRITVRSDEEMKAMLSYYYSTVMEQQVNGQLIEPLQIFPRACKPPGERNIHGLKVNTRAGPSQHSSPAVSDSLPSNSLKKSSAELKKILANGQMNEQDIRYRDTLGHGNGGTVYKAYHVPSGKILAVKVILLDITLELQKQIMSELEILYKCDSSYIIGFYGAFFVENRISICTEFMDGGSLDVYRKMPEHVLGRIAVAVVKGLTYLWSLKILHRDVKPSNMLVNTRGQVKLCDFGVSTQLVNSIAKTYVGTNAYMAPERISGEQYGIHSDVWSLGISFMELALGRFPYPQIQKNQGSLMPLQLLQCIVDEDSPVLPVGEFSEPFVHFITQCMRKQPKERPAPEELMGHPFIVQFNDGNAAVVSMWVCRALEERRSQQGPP

Experiment [5] concerns the target Maternal embryonic leucine zipper kinase (Homo sapiens, UniProt Q14680).
Experiment [6] has as its target T2, cGMP-dependent protein kinase 1 (Homo sapiens, UniProt Q13976).
T2 sequence (Q13976 whole entry): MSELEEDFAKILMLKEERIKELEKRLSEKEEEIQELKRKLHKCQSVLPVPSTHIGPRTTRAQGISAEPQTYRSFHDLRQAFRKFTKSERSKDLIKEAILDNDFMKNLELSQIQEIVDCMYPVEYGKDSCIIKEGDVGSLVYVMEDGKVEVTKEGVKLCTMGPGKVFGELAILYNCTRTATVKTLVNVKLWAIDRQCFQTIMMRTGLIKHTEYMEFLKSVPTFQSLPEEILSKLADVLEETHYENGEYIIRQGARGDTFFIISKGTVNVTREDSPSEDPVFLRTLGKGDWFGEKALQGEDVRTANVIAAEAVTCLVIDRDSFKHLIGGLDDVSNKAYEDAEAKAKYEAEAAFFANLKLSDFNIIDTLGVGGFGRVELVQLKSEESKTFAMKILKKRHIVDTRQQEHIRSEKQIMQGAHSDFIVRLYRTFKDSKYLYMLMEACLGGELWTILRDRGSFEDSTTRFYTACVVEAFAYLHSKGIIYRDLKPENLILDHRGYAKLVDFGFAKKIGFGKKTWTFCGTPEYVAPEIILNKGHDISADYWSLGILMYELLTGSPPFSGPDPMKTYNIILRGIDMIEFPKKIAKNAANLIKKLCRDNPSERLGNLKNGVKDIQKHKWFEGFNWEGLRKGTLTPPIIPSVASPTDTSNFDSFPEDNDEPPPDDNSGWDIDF

Experiment [7] deals with Serine/threonine-protein kinase SIK3 (Homo sapiens, UniProt Q9Y2K2).
Chain of Serine/threonine-protein kinase SIK3 (Q9Y2K2 whole entry): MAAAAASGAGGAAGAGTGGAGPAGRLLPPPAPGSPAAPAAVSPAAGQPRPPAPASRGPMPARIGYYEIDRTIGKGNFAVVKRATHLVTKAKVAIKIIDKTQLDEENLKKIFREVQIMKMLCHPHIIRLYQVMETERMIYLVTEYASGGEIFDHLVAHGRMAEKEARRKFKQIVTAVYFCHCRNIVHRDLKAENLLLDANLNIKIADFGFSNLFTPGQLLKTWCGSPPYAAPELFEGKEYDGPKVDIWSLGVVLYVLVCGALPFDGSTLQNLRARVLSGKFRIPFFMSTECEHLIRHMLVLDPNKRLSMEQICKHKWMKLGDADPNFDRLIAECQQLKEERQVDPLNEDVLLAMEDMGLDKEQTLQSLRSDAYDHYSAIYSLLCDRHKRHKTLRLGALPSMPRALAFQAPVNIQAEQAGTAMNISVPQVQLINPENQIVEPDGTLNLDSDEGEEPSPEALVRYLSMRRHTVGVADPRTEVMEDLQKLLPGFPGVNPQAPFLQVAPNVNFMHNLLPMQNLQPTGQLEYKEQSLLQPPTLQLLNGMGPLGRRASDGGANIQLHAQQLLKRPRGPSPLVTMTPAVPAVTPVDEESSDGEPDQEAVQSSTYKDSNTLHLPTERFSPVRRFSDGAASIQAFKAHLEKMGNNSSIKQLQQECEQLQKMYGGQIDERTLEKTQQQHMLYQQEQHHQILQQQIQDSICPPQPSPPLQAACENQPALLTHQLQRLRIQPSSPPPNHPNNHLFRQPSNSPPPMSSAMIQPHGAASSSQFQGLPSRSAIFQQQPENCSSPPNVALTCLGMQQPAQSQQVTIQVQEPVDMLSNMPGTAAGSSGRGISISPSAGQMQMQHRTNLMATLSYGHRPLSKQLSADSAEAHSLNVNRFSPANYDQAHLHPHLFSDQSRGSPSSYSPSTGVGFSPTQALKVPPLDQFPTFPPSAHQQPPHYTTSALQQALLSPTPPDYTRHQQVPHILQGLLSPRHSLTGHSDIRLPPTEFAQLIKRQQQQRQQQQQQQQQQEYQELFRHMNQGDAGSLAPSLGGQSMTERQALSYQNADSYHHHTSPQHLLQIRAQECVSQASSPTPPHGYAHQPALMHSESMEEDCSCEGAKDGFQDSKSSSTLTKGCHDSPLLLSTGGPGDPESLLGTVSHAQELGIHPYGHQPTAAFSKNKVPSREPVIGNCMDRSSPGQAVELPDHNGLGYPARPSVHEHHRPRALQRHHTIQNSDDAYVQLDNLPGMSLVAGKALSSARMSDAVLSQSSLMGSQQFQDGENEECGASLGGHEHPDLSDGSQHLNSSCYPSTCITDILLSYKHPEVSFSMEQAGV
Experiment [8] has as its target T3, Thyroid hormone receptor-associated protein 3 (Homo sapiens, UniProt Q9Y2W1).
T3 sequence (Q9Y2W1 whole entry): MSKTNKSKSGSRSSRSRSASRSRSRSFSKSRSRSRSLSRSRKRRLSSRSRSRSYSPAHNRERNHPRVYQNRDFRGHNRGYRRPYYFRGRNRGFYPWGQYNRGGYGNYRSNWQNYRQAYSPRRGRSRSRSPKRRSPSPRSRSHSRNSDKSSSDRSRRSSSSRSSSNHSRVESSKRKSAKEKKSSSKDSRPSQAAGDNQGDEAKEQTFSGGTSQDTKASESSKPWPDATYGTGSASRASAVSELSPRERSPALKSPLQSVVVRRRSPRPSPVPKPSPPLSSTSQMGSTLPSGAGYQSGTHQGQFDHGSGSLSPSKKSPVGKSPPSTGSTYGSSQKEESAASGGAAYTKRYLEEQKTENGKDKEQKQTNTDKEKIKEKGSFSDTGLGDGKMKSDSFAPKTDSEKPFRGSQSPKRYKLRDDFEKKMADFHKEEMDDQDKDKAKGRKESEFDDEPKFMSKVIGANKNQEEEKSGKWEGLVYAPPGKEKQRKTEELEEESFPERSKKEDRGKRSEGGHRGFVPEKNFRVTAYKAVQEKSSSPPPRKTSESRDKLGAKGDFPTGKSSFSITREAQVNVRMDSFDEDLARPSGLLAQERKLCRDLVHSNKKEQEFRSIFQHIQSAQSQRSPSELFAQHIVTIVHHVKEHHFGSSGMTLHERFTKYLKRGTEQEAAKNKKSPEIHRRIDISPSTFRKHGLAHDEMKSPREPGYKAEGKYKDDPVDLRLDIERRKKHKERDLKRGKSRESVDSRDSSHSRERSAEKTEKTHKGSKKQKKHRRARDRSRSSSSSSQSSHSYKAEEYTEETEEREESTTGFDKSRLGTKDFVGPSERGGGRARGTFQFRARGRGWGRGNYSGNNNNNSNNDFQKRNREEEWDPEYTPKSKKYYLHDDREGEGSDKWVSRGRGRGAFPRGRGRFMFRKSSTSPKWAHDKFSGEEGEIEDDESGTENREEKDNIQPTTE

The target in experiment [9] is T4, Serine/threonine-protein kinase ULK3 (Homo sapiens, UniProt Q6PHR2).
T4 sequence (Q6PHR2 whole entry): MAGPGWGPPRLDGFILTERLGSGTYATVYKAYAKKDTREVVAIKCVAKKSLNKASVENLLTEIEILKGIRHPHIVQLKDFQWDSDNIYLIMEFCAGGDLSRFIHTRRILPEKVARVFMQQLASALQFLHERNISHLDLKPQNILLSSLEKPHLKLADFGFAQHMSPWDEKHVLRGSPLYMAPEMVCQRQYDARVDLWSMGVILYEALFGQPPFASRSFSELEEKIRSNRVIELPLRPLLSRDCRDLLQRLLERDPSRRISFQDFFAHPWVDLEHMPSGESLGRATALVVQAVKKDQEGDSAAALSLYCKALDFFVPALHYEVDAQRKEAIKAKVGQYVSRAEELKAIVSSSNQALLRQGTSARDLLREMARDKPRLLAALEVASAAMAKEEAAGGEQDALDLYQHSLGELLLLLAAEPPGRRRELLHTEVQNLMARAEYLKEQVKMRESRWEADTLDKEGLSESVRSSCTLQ
Note: in the data inactive means no Kd found up to 30 µM.

Chain of Cyclin-dependent kinase 1 (P06493 whole entry): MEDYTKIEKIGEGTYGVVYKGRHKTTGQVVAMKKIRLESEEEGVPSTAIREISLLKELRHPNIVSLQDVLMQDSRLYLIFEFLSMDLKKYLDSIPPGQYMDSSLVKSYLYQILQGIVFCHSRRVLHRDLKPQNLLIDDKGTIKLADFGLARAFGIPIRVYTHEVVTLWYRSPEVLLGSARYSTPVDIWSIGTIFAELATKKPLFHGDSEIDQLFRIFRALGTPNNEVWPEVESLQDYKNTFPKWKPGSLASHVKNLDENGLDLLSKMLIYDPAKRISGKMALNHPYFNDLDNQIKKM
Chain of Maternal embryonic leucine zipper kinase (Q14680 whole entry): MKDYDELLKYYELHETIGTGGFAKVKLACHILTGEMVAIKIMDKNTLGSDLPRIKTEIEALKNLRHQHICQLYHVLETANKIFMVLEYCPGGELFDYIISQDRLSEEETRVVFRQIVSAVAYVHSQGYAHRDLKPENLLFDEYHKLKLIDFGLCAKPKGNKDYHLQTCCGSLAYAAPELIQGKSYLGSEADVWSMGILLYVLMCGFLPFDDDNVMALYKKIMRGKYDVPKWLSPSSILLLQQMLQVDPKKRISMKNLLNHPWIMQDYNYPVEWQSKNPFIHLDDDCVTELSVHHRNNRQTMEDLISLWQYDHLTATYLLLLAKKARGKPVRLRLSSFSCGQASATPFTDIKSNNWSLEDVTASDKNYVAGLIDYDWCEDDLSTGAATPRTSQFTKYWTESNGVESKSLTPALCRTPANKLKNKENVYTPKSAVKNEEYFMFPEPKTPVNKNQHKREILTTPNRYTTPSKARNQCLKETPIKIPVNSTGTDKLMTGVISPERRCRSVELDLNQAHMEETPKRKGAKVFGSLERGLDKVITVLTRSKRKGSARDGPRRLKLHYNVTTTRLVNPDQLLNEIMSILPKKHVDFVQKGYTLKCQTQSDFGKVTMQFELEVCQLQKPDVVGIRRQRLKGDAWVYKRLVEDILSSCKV

As for `CCCCCCCCCCCCCCCCCCOP(=O)([O-])OC1CC[N+](C)(C)CC1` [PERIFOSINE], the Kd in experiment [1], in [2], in [3], in experiment [4], in experiment [5] and in experiment [6] was > 30 µM (inactive) each time. Further, the Kd in experiment [7], in experiment [8] and in experiment [9] was > 30 µM (inactive) in each case.

As to `Cc1nc(Nc2n[nH]c3c2CN(C(=O)N[C@H](CN(C)C)c2ccccc2)C3(C)C)c2sccc2n1` [PF-03758309], the Kd in experiment [1] is > 30 µM (inactive); in experiment [2] it was 63.6 µM (active); in experiment [3], > 30 µM (inactive); in experiment [4], > 30 µM (inactive); in experiment [5], 0.057 µM (active); in [6], 0.808 µM (active). The figures for the Kd in experiment [7], in experiment [8] and in experiment [9] were > 30 µM (inactive), > 30 µM (inactive) and 0.626 µM (active), respectively.

Consider `Cc1cnc(NC(=O)Nc2cc(Br)c(C)cc2OC[C@@H]2CNCCO2)cn1` [RABUSERTIB], for which the Kd in [1], in experiment [2], in experiment [3], in [4], in experiment [5] and in experiment [6] was > 30 µM (inactive) each time. For the same compound, the Kd in experiment [7], in [8] and in experiment [9] was > 30 µM (inactive) each time.

Regarding `CNC(=O)c1cc(Oc2ccc(NC(=O)Nc3cc(C(C)(C)C)nn3-c3ccc4ncccc4c3)c(F)c2)ccn1` [REBASTINIB], the equilibrium dissociation constant (Kd) was 1.07 µM (active) in [1]; 2.65 µM (active) in [2]; > 30 µM (inactive) in [3]; > 30 µM (inactive) in [4]; > 30 µM (inactive) in [5]; > 30 µM (inactive) in [6]. The Kd in experiment [7], in [8] and in experiment [9] was > 30 µM (inactive) in each case.

For the compound `CO[C@H]1C[C@@H]2CC[C@@H](C)[C@@](O)(O2)C(=O)C(=O)N2CCCC[C@H]2C(=O)O[C@H]([C@H](C)C[C@@H]2CC[C@@H](OP(C)(C)=O)[C@H](OC)C2)CC(=O)[C@H](C)/C=C(\C)[C@@H](O)[C@@H](OC)C(=O)[C@H](C)C[C@H](C)/C=C/C=C/C=C/1C` [RIDAFOROLIMUS], the Kd in [1], in [2], in [3], in experiment [4], in experiment [5] and in [6] was > 30 µM (inactive) throughout. The Kd in experiment [7], in experiment [8] and in [9] was > 30 µM (inactive) throughout.

`O=c1[nH]ccc2cc(OC3CCNCC3)ccc12` [SAR-407899 FREE BASE]: the Kd in experiment [1] is > 30 µM (inactive); in experiment [2], > 30 µM (inactive); in experiment [3], > 30 µM (inactive); in experiment [4], > 30 µM (inactive); in experiment [5] it was > 30 µM (inactive); in experiment [6] it was 0.004 µM. In addition, the Kd in experiment [7], in experiment [8] and in experiment [9] was > 30 µM (inactive) each time.

Consider `Cn1cc(-c2cnn3c(N)c(Br)c([C@@H]4CCCNC4)nc23)cn1` [SCH-900776], for which the Kd was > 30 µM (inactive) in [1]; > 30 µM (inactive) in experiment [2]; > 30 µM (inactive) in experiment [3]; 0.609 µM (active) in experiment [4]; 4.69 µM (active) in experiment [5]; > 30 µM (inactive) in experiment [6]. For the same compound, the Kd in [7], in [8] and in experiment [9] was > 30 µM (inactive) each time.

Consider `CO[C@H]1C[C@@H]2CC[C@@H](C)[C@@](O)(O2)C(=O)C(=O)N2CCCC[C@H]2C(=O)O[C@H]([C@H](C)C[C@@H]2CC[C@@H](OC(=O)C(C)(CO)CO)[C@H](OC)C2)CC(=O)[C@H](C)/C=C(\C)[C@@H](O)[C@@H](OC)C(=O)[C@H](C)C[C@H](C)/C=C/C=C/C=C/1C` [TEMSIROLIMUS], for which the Kd in experiment [1], in experiment [2], in experiment [3], in experiment [4], in [5] and in experiment [6] was > 30 µM (inactive) each time. For the same compound, the Kd in [7], in experiment [8] and in experiment [9] was > 30 µM (inactive) each time.

`COc1cc2c(Nc3ccc(Cl)c(Cl)c3F)ncnc2cc1OC[C@@H]1C[C@@H]2CN(C)C[C@@H]2C1` [TESEVATINIB]: the Kd was > 30 µM (inactive) in experiment [1]; > 30 µM (inactive) in [2]; > 30 µM (inactive) in experiment [3]; 65.7 µM (active) in experiment [4]; > 30 µM (inactive) in experiment [5]; > 30 µM (inactive) in experiment [6]. In addition, the Kd in [7], in experiment [8] and in experiment [9] was > 30 µM (inactive) throughout.

`O=C(Cc1ccc(-c2ccc(OCCN3CCOCC3)cc2)cn1)NCc1ccccc1` [TIRBANIBULIN]: the Kd in experiment [1], in experiment [2], in experiment [3], in [4], in experiment [5] and in experiment [6] was > 30 µM (inactive) each time. The Kd in experiment [7], in [8] and in experiment [9] was > 30 µM (inactive) each time.
